Measured values reported in US20080063723A1, “ISOTHIAZOLIN-3-ONE-CONTAINING ANTIMICROBIAL COMPOSITION” (priority 2006, published 2008).

What was measured:
Format in all cases: cell-based
Fusarium sp = test: Mold growth on treated Southern Yellow Pine wood samples, Fusarium
Method: (§1) To determine the effectiveness of compositions containing an alkyl amine in combination with OIT and/or BBIT, such compositions were compared to compositions containing only an alkyl amine or compositions containing only OIT or BBIT. The efficacy of those compositions was shown by applying the compositions to Southern Yellow Pine (SYP) wood samples.
(§2) After the SYP samples were treated with the particular composition to be evaluated, the samples were placed onto a support in an extra depth Petri-dish.
(§3) A fungal spore suspension of two common mold species (Aspergillus and Fusarium) was spread on top of the wood sample. Fungal hyphal growth on the surface of samples was examined under the microscope once every week. The scale based on mycelial coverage of wood surface is as follows:
(§4) To evaluate the effectiveness of the compositions against common species of mold, compositions containing various levels of BBIT, OIT and C12-alkyl amine or a mixture of these components were tested on SYP wood blocks using the testing protocol discussed above. Specifically, compositions shown in Table 2A were applied to the wood blocks to determine anti-fungal efficacy of the compositions.
(§5) It is noted that compositions containing OIT and C12-alkyl amine were obtained by mixing compositions A0 and B0 in the recited ratio. Likewise, compositions containing BBIT and C12-alkyl amine were obtained by mixing compositions A0and C0.

Aspergillus sp = test: Mold growth on treated Southern Yellow Pine wood samples, Aspergillus
Method: as §1, §2, §3, §4, §5

[1] = test system: two common mold species (Aspergillus and Fusarium); test: Mold control on treated wood, overall statements for both molds
Method: as §1, §2, §3, §4
It is noted that compositions containing OIT and C12-alkyl amine were obtained by mixing compositions A0 and B0 in the recited ratio. […]

CCCCn1sc2ccccc2c1=O [BBIT alone, N-n-butyl-1,2-benzisothiazolin-3-one]
Fusarium sp mycelial coverage (Fusarium sp; ratio 1:0, 80 ppm, 1 week): 0 (0%)
Fusarium sp mycelial coverage (Fusarium sp; ratio 1:0, 80 ppm, 2 weeks): 0 (0%)
Fusarium sp mycelial coverage (Fusarium sp; ratio 1:0, 80 ppm, 3 weeks): 1 (<10%)
Fusarium sp mycelial coverage (Fusarium sp; ratio 1:0, 80 ppm, 4 weeks): 1 (<10%)
Aspergillus sp mycelial coverage (Aspergillus sp; ratio 1:0, 80 ppm, 1 week): 0 (0%)
Aspergillus sp mycelial coverage (Aspergillus sp; ratio 1:0, 80 ppm, 2 weeks): 0 (0%)
Aspergillus sp mycelial coverage (Aspergillus sp; ratio 1:0, 80 ppm, 3 weeks): 0 (0%)
Aspergillus sp mycelial coverage (Aspergillus sp; ratio 1:0, 80 ppm, 4 weeks): 1 (<10%)
performance as a moldicide ([1]; concentration of 80 ppm): performed effectively as a moldicide

CCCCCCCCCCCCN(C)C [C12-alkyl amine alone]
Fusarium sp mycelial coverage (Fusarium sp; Table 4, 1000 ppm, 1 week): 0, 0, 0, 0 (0%)
Fusarium sp mycelial coverage (Fusarium sp; Table 4, 1000 ppm, 2 weeks): 0, 0, 0, 0 (0%)
Fusarium sp mycelial coverage (Fusarium sp; Table 4, 1000 ppm, 3 weeks): 0, 0, 0, 0 (0%)
Fusarium sp mycelial coverage (Fusarium sp; Table 4, 1000 ppm, 4 weeks): 0, 0, 0, 0 (0%)
Fusarium sp mycelial coverage (Fusarium sp; ratio 0:1, 1000 ppm, 1 week): 0, 0, 0, 0 (0%)
Fusarium sp mycelial coverage (Fusarium sp; ratio 0:1, 1000 ppm, 2 weeks): 0, 0, 0, 0 (0%)
Fusarium sp mycelial coverage (Fusarium sp; ratio 0:1, 1000 ppm, 3 weeks): 0, 0, 0, 0 (0%)
Fusarium sp mycelial coverage (Fusarium sp; ratio 0:1, 1000 ppm, 4 weeks): 0, 0, 0, 0 (0%)
performance as a moldicide (Fusarium sp; used alone, 1000 ppm, against Fusarium): performed effectively as a moldicide
Aspergillus sp mycelial coverage (Aspergillus sp; Table 4, 1000 ppm, 1 week): 0 (0%)
Aspergillus sp mycelial coverage (Aspergillus sp; Table 4, 1000 ppm, 2 weeks): 2 (˜10-30%)
Aspergillus sp mycelial coverage (Aspergillus sp; Table 4, 1000 ppm, 3 weeks): 3 (˜30-60%)
Aspergillus sp mycelial coverage (Aspergillus sp; Table 4, 1000 ppm, 4 weeks): 3 (˜30-60%)
Aspergillus sp mycelial coverage (Aspergillus sp; ratio 0:1, 1000 ppm, 1 week): 0 (0%)
Aspergillus sp mycelial coverage (Aspergillus sp; ratio 0:1, 1000 ppm, 2 weeks): 2 (˜10-30%)
Aspergillus sp mycelial coverage (Aspergillus sp; ratio 0:1, 1000 ppm, 3 weeks): 3 (˜30-60%)
Aspergillus sp mycelial coverage (Aspergillus sp; ratio 0:1, 1000 ppm, 4 weeks): 3 (˜30-60%)
performance as a moldicide (Aspergillus sp; used alone, 1000 ppm, against Aspergillus): less effective

CCCCCCCCn1sccc1=O [OIT alone, 2-n-octyl-4-isothiazolin-3-one]
Fusarium sp mycelial coverage (Fusarium sp; ratio 1:0, 100 ppm, 1 week): 0, 0, 0, 0 (0%)
Fusarium sp mycelial coverage (Fusarium sp; ratio 1:0, 100 ppm, 2 weeks): 0, 0, 0, 0 (0%)
Fusarium sp mycelial coverage (Fusarium sp; ratio 1:0, 100 ppm, 3 weeks): 0, 0, 0, 0 (0%)
Fusarium sp mycelial coverage (Fusarium sp; ratio 1:0, 100 ppm, 4 weeks): 0, 0, 0, 0 (0%)
Aspergillus sp mycelial coverage (Aspergillus sp; ratio 1:0, 100 ppm, 1 week): 0 (0%)
Aspergillus sp mycelial coverage (Aspergillus sp; ratio 1:0, 100 ppm, 2 weeks): 0 (0%)
Aspergillus sp mycelial coverage (Aspergillus sp; ratio 1:0, 100 ppm, 3 weeks): 1 (<10%)
Aspergillus sp mycelial coverage (Aspergillus sp; ratio 1:0, 100 ppm, 4 weeks): 1 (<10%)
performance as a moldicide ([1]; concentration of 100 ppm): performed effectively as a moldicide
